PubChem BioAssay (NCI)
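All cell lines were grown in 96-well plates and treated with compound for 48 hours. TGI: concentration producing complete growth inhibition.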

Experiments:
Assay in all cases: NCI anticancer screen, dose series, 48 h
SW-620 colon = system: SW-620 colon
TK-10 renal = system: TK-10 renal
ACHN renal = system: ACHN renal
OVCAR-5 ovarian = system: OVCAR-5 ovarian
HCC-2998 colon = system: HCC-2998 colon
HCT-116 colon = system: HCT-116 colon
SK-OV-3 ovarian = system: SK-OV-3 ovarian
UO-31 renal = system: UO-31 renal
RPMI-8226 leukemia = system: RPMI-8226 leukemia
MDA-N = system: MDA-N
786-0 renal = system: 786-0 renal
NCI/ADR-RES ovarian = system: NCI/ADR-RES ovarian
LOX IMVI melanoma = system: LOX IMVI melanoma
NCI-H23 lung = system: NCI-H23 lung
NCI-H460 lung = system: NCI-H460 lung
SN12C renal = system: SN12C renal
SF-539 CNS = system: SF-539 CNS
U251 CNS = system: U251 CNS
DU-145 prostate = system: DU-145 prostate
M14 melanoma = system: M14 melanoma
BT-549 breast = system: BT-549 breast
SR leukemia = system: SR leukemia
A498 renal = system: A498 renal
HL-60(TB) leukemia = system: HL-60(TB) leukemia
MALME-3M melanoma = system: MALME-3M melanoma
SNB-19 CNS = system: SNB-19 CNS
UACC-257 melanoma = system: UACC-257 melanoma
K-562 leukemia = system: K-562 leukemia
HT29 colon = system: HT29 colon
OVCAR-3 ovarian = system: OVCAR-3 ovarian
OVCAR-8 ovarian = system: OVCAR-8 ovarian
T-47D breast = system: T-47D breast
COLO 205 colon = system: COLO 205 colon
MOLT-4 leukemia = system: MOLT-4 leukemia
HCT-15 colon = system: HCT-15 colon
A549 NSCLC = system: A549 NSCLC
SK-MEL-28 melanoma = system: SK-MEL-28 melanoma
MDA-MB-231 breast = system: MDA-MB-231 breast
CAKI-1 renal = system: CAKI-1 renal
HOP-92 NSCLC = system: HOP-92 NSCLC
PC-3 prostate = system: PC-3 prostate
NCI-H226 lung = system: NCI-H226 lung
EKVX NSCLC = system: EKVX NSCLC
SK-MEL-2 melanoma = system: SK-MEL-2 melanoma
HOP-62 NSCLC = system: HOP-62 NSCLC
NCI-H522 lung = system: NCI-H522 lung
IGROV1 ovarian = system: IGROV1 ovarian
SK-MEL-5 melanoma = system: SK-MEL-5 melanoma
KM12 colon = system: KM12 colon
SF-295 CNS = system: SF-295 CNS
MCF7 breast = system: MCF7 breast
HS 578T breast = system: HS 578T breast
CCRF-CEM leukemia = system: CCRF-CEM leukemia
RXF 393 renal = system: RXF 393 renal
SF-268 CNS = system: SF-268 CNS
SNB-75 CNS = system: SNB-75 CNS
MDA-MB-435 = system: MDA-MB-435
OVCAR-4 ovarian = system: OVCAR-4 ovarian
UACC-62 melanoma = system: UACC-62 melanoma

COc1ccc(/C=C2/N=C(N/N=C\C(O)C(O)C(O)C(O)CO)NC2=O)cc1 (stereo not drawn)
TGI (SW-620 colon): > 100 µM
TGI (TK-10 renal): > 100 µM
TGI (ACHN renal): > 100 µM
TGI (OVCAR-5 ovarian): > 100 µM
TGI (HCC-2998 colon): > 100 µM
TGI (HCT-116 colon): > 100 µM
TGI (SK-OV-3 ovarian): > 100 µM
TGI (UO-31 renal): > 100 µM
TGI (RPMI-8226 leukemia): > 100 µM
TGI (MDA-N): > 100 µM
TGI (786-0 renal): > 100 µM
TGI (NCI/ADR-RES ovarian): > 100 µM
TGI (LOX IMVI melanoma): > 100 µM
TGI (NCI-H23 lung): > 100 µM
TGI (NCI-H460 lung): > 100 µM
TGI (SN12C renal): > 100 µM
TGI (SF-539 CNS): > 100 µM
TGI (U251 CNS): > 100 µM
TGI (DU-145 prostate): > 100 µM
TGI (M14 melanoma): > 100 µM
TGI (BT-549 breast): > 100 µM
TGI (SR leukemia): > 100 µM
TGI (A498 renal): > 100 µM
TGI (HL-60(TB) leukemia): > 100 µM
TGI (MALME-3M melanoma): > 100 µM
TGI (SNB-19 CNS): > 100 µM
TGI (UACC-257 melanoma): > 100 µM
TGI (K-562 leukemia): > 100 µM
TGI (HT29 colon): > 100 µM
TGI (OVCAR-3 ovarian): > 100 µM
TGI (OVCAR-8 ovarian): > 100 µM
TGI (T-47D breast): > 100 µM
TGI (COLO 205 colon): > 100 µM
TGI (MOLT-4 leukemia): > 100 µM
TGI (HCT-15 colon): > 100 µM
TGI (A549 NSCLC): > 100 µM
TGI (SK-MEL-28 melanoma): > 100 µM
TGI (MDA-MB-231 breast): > 100 µM
TGI (CAKI-1 renal): > 100 µM
TGI (HOP-92 NSCLC): > 100 µM
TGI (PC-3 prostate): > 100 µM
TGI (NCI-H226 lung): > 100 µM
TGI (EKVX NSCLC): > 100 µM
TGI (SK-MEL-2 melanoma): > 100 µM
TGI (HOP-62 NSCLC): > 100 µM
TGI (NCI-H522 lung): > 100 µM
TGI (IGROV1 ovarian): > 100 µM
TGI (SK-MEL-5 melanoma): > 100 µM
TGI (KM12 colon): > 100 µM
TGI (SF-295 CNS): > 100 µM
TGI (MCF7 breast): > 100 µM
TGI (HS 578T breast): > 100 µM
TGI (CCRF-CEM leukemia): > 100 µM
TGI (RXF 393 renal): > 100 µM
TGI (SF-268 CNS): > 100 µM
TGI (SNB-75 CNS): > 100 µM
TGI (MDA-MB-435): > 100 µM
TGI (OVCAR-4 ovarian): > 100 µM

CCCCc1ccc(Nc2nc(=S)c3ncn(COCCO)c3[nH]2)cc1
TGI (SW-620 colon): > 100 µM
TGI (TK-10 renal): > 100 µM
TGI (ACHN renal): > 100 µM
TGI (OVCAR-5 ovarian): > 100 µM
TGI (HCC-2998 colon): > 100 µM
TGI (HCT-116 colon): > 100 µM
TGI (SK-OV-3 ovarian): > 100 µM
TGI (UO-31 renal): > 100 µM
TGI (RPMI-8226 leukemia): 54 µM
TGI (MDA-N): > 100 µM
TGI (786-0 renal): > 100 µM
TGI (NCI/ADR-RES ovarian): > 100 µM
TGI (LOX IMVI melanoma): 76.1 µM
TGI (NCI-H23 lung): > 100 µM
TGI (NCI-H460 lung): > 100 µM
TGI (SN12C renal): > 100 µM
TGI (SF-539 CNS): > 100 µM
TGI (U251 CNS): > 100 µM
TGI (DU-145 prostate): > 100 µM
TGI (M14 melanoma): > 100 µM
TGI (BT-549 breast): > 100 µM
TGI (SR leukemia): 66.7 µM
TGI (A498 renal): > 100 µM
TGI (HL-60(TB) leukemia): 54.4 µM
TGI (MALME-3M melanoma): 47.1 µM
TGI (SNB-19 CNS): > 100 µM
TGI (UACC-257 melanoma): > 100 µM
TGI (K-562 leukemia): 51.7 µM
TGI (HT29 colon): > 100 µM
TGI (OVCAR-3 ovarian): 74.4 µM
TGI (OVCAR-8 ovarian): > 100 µM
TGI (T-47D breast): 46.8 µM
TGI (COLO 205 colon): 44.5 µM
TGI (MOLT-4 leukemia): > 100 µM
TGI (HCT-15 colon): > 100 µM
TGI (A549 NSCLC): > 100 µM
TGI (MDA-MB-231 breast): 57.6 µM
TGI (CAKI-1 renal): > 100 µM
TGI (HOP-92 NSCLC): 63.4 µM
TGI (PC-3 prostate): > 100 µM
TGI (NCI-H226 lung): > 100 µM
TGI (EKVX NSCLC): > 100 µM
TGI (SK-MEL-2 melanoma): 90.4 µM
TGI (HOP-62 NSCLC): > 100 µM
TGI (NCI-H522 lung): 51.3 µM
TGI (IGROV1 ovarian): > 100 µM
TGI (SK-MEL-5 melanoma): > 100 µM
TGI (KM12 colon): > 100 µM
TGI (SF-295 CNS): > 100 µM
TGI (MCF7 breast): 54.1 µM
TGI (HS 578T breast): > 100 µM
TGI (CCRF-CEM leukemia): 59.7 µM
TGI (RXF 393 renal): > 100 µM
TGI (SNB-75 CNS): 97.9 µM
TGI (MDA-MB-435): > 100 µM
TGI (OVCAR-4 ovarian): > 100 µM
TGI (UACC-62 melanoma): > 100 µM

O=c1c2cccnc2[nH]c2ccc3[nH]ncc3c12
TGI (SW-620 colon): > 10 µM
TGI (TK-10 renal): > 10 µM
TGI (ACHN renal): > 10 µM
TGI (OVCAR-5 ovarian): > 10 µM
TGI (HCC-2998 colon): > 10 µM
TGI (HCT-116 colon): > 10 µM
TGI (SK-OV-3 ovarian): > 10 µM
TGI (RPMI-8226 leukemia): > 10 µM
TGI (MDA-N): > 10 µM
TGI (786-0 renal): > 10 µM
TGI (NCI/ADR-RES ovarian): > 10 µM
TGI (LOX IMVI melanoma): > 10 µM
TGI (NCI-H23 lung): > 10 µM
TGI (NCI-H460 lung): > 10 µM
TGI (SN12C renal): > 10 µM
TGI (SF-539 CNS): > 10 µM
TGI (U251 CNS): > 10 µM
TGI (DU-145 prostate): > 10 µM
TGI (M14 melanoma): > 10 µM
TGI (BT-549 breast): > 10 µM
TGI (SR leukemia): > 10 µM
TGI (A498 renal): > 10 µM
TGI (HL-60(TB) leukemia): > 10 µM
TGI (MALME-3M melanoma): > 10 µM
TGI (SNB-19 CNS): > 10 µM
TGI (UACC-257 melanoma): > 10 µM
TGI (K-562 leukemia): > 10 µM
TGI (HT29 colon): > 10 µM
TGI (OVCAR-3 ovarian): > 10 µM
TGI (OVCAR-8 ovarian): > 10 µM
TGI (T-47D breast): > 10 µM
TGI (COLO 205 colon): > 10 µM
TGI (MOLT-4 leukemia): > 10 µM
TGI (HCT-15 colon): > 10 µM
TGI (A549 NSCLC): > 10 µM
TGI (SK-MEL-28 melanoma): > 10 µM
TGI (MDA-MB-231 breast): > 10 µM
TGI (CAKI-1 renal): > 10 µM
TGI (HOP-92 NSCLC): > 10 µM
TGI (PC-3 prostate): > 10 µM
TGI (NCI-H226 lung): > 10 µM
TGI (EKVX NSCLC): > 10 µM
TGI (SK-MEL-2 melanoma): > 10 µM
TGI (HOP-62 NSCLC): > 10 µM
TGI (NCI-H522 lung): > 10 µM
TGI (IGROV1 ovarian): > 10 µM
TGI (SK-MEL-5 melanoma): > 10 µM
TGI (KM12 colon): > 10 µM
TGI (SF-295 CNS): > 10 µM
TGI (MCF7 breast): > 10 µM
TGI (HS 578T breast): > 10 µM
TGI (CCRF-CEM leukemia): > 10 µM
TGI (RXF 393 renal): > 10 µM
TGI (SF-268 CNS): > 10 µM
TGI (SNB-75 CNS): > 10 µM
TGI (MDA-MB-435): > 10 µM
TGI (OVCAR-4 ovarian): > 10 µM
TGI (UACC-62 melanoma): > 10 µM
